Results taken from patent US20230008368A1, “IMIDAZOQUINOLINE SUBSTITUTED PHOSPHORIC ESTER AGONIST, AND PREPARATION THEREFOR AND APPLICATION THEREOF” (SUZHOU ZELGEN BIOPHARMACEUTICALS CO., LTD., priority 2019, published 2023).
pEC50: −log10 of the molar value. Like-named read-outs stand apart in the source and are kept apart here.

What was measured:
hTLR8 = molecular target: T1, hTLR8 (Homo sapiens, UniProt Q9NR97); test: agonistic activity on hTLR8, HEK-Blue hTLR cells, SEAP reporter (QUANTI-Blue); assay type: cell-based; conditions: for pEC50: SEAP reporter, OD650, cultured 1 day; for TLR 8 selectivity TLR 7/TLR 8: ratio of TLR 7 EC50 to TLR 8 EC50
T1 construct: expressed in transfected cells; host or cells: HEK-Blue hTLR cells
T1 sequence (Q9NR97 27-1041): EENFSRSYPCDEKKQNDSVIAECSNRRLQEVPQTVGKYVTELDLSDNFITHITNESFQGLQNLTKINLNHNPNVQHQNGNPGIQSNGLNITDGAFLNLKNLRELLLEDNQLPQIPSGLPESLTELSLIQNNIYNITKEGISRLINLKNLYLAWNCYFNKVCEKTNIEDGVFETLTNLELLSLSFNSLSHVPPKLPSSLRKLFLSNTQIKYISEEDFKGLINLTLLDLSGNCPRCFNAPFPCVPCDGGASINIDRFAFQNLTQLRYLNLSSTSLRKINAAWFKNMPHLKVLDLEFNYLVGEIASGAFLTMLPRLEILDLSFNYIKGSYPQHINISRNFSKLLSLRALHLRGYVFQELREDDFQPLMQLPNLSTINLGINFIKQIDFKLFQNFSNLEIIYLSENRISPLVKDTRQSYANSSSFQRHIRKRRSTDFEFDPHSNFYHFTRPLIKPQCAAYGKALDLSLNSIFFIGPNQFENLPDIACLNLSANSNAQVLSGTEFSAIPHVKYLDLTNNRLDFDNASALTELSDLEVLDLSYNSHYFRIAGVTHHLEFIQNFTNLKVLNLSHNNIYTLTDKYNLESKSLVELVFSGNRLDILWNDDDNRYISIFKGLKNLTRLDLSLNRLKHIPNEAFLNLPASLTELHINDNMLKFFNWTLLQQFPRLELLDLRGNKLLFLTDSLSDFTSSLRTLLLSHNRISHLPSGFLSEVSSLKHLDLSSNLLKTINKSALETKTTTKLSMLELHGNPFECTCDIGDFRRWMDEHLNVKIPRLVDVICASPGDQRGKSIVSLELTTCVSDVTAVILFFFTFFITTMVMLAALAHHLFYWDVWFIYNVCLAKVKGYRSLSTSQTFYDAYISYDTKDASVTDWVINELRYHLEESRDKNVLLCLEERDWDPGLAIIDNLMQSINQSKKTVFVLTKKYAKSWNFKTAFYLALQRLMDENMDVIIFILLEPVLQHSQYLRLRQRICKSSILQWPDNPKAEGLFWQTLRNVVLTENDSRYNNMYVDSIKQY
Protocol: (§1) Experiments on the agonistic activity of TLR7 and TLR8 by the compounds in vitro
(§2) The compound was diluted with 1:3 series with DMSO for 9 concentration points, duplicated wells, and added to 96-well plate with Echo.
(§3) The HEK-Blue™ hTLR cells were suspended in the culture medium and then seeded into a 96-well plate containing the compound at a density of 50,000 cells/well. Cells were cultured at 5% CO2 and 37° C. for 1 day. The final concentration of DMSO in the cell culture medium was 0.5%.
(§4) 20 uL cell culture supernatant was taken, according to the QUANTI-Blue instructions, the reporter gene SEAP in the supernatant was detected, and the OD650 signal value was read with a microplate reader to calculate the agonist activity of the compound on the hTLR7 and hTLR8.
(§5) The EC50 and CC50 values of the compound were calculated by GraphPad Prism software, and the fitting curve was plotted.

[1] = cytotoxicity, cell viability by CellTiter-Glo; assay type: cell-based, human; conditions: human, HEK-Blue hTLR cells, cultured 1 day
Protocol: as §2, §3
(§6) According to the CellTiter-Glo instructions, the cell viability was measured, and the Luminescence signal value was read by the microplate reader, which was used to calculate the cytotoxicity of the compound.
as §5

hTLR7 = molecular target: T2, hTLR7 (Homo sapiens, UniProt Q9NYK1); test: agonistic activity on hTLR7, HEK-Blue hTLR cells, SEAP reporter (QUANTI-Blue); assay type: cell-based; conditions: for TLR 7 selectivity TLR 8/TLR 7: ratio of TLR 8 EC50 to TLR 7 EC50
T2 construct: expressed in transfected cells; host or cells: HEK-Blue hTLR cells
T2 sequence (Q9NYK1 27-1049): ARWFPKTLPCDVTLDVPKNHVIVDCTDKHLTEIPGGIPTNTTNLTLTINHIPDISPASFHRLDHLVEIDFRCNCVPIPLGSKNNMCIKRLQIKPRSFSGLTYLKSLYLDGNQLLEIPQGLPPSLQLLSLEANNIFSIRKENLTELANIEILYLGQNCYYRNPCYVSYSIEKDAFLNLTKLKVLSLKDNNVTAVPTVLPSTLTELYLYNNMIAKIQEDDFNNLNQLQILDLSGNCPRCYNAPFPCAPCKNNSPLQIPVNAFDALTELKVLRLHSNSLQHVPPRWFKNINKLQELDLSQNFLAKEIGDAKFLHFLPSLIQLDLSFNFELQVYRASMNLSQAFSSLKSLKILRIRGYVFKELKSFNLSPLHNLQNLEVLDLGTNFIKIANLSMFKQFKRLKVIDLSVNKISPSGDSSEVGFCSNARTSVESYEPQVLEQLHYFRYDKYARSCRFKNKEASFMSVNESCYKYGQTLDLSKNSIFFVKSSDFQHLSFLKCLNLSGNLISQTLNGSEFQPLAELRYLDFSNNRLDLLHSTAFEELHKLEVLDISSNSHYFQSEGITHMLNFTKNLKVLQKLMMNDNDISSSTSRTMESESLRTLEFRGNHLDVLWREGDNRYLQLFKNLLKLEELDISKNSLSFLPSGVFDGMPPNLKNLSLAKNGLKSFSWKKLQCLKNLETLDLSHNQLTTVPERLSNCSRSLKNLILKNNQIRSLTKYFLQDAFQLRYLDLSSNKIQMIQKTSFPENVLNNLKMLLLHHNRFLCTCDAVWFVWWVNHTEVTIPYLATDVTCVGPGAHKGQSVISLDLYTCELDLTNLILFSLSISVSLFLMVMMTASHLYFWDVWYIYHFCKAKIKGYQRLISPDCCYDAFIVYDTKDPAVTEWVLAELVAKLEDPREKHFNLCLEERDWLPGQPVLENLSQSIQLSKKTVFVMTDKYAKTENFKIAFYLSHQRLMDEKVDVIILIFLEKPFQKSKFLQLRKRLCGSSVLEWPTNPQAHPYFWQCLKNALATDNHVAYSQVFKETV
Protocol: as §1, §2, §3, §4, §5

HEK-Blue™ hTLR cells = test: cytotoxicity, cell viability by CellTiter-Glo; assay type: cell-based, human; conditions: cultured 1 day
Protocol: as §2, §3, §6, §5

[2] = HEK-Blue hTLR cells, read-out: TLR 8 EC50
[3] = HEK-Blue hTLR cells, SEAP reporter, OD650, cultured 1 day, read-out: TLR 7 EC50
[4] = TLR 8 EC50, HEK-Blue hTLR cells

Row | SMILES | pEC50 (hTLR8; [2]) | CC50 at 1 day [1] [µM] | pEC50 (hTLR7; [3]) | TLR 7 selectivity TLR 8/TLR 7 (hTLR7) | pEC50 (hTLR8; [4]) | TLR 8 selectivity TLR 7/TLR 8 (hTLR8) | pEC50 (hTLR7) | CC50 (HEK-Blue™ hTLR cells) [µM]
1 | CCOCc1nc2c(N)nc3ccccc3c2n1C[C@@H](C)O (single isomer, unassigned) [Example 1B] | 5.44 | > 30 | 5.90 | 2.8 |  |  |  | 
2 | CCOCc1nc2c(N)nc3ccccc3c2n1C[C@@H](C)O[P@@](=O)(N[C@@H](C)C(=O)OC(C)C)Oc1ccccc1 (single isomer, unassigned) [Example 2A] |  | > 30 |  |  | 6.06 | 3.2 | 5.55 | 
3 | CCOCc1nc2c(N)nc3ccccc3c2n1C[C@H](C)O[P@@](=O)(N[C@@H](C)C(=O)OC(C)C)Oc1ccccc1 (single isomer, unassigned) [Example 2B] |  | > 30 |  |  | 7.11 | 39.4 | 5.52 | 
4 | CCOCc1nc2c(N)nc3ccccc3c2n1C[C@@H](C)O[P@](=O)(N[C@@H](C)C(=O)OC(C)C)Oc1ccccc1 (single isomer, unassigned) [Example 3A] | 5.04 | > 30 | < 4.52 |  |  | >3.3 |  | 
5 | CCOCc1nc2c(N)nc3ccccc3c2n1C[C@H](C)O[P@](=O)(N[C@@H](C)C(=O)OC(C)C)Oc1ccccc1 (single isomer, unassigned) [Example 3B] | 5.73 | > 30 | 5.44 |  |  | 1.9 |  | 
6 | CCOCc1nc2c(N)nc3ccccc3c2n1C[C@@H](C)O[P@@](=O)(N[C@@H](C)C(=O)OC(C)C)Oc1cccc2ccccc12 (single isomer, unassigned) [Example 5A] | 8.04 | 17.9 | < 5.00 |  |  | >1086 |  | 
7 | CCOCc1nc2c(N)nc3ccccc3c2n1C[C@@H](C)OP(=O)(N[C@@H](C)C(=O)OC(C)C)Oc1cccc2ccccc12 (single isomer, unassigned) [Example 5B] | 7.77 |  |  |  |  |  |  | > 30
8 | CCOCc1nc2c(N)nc3ccccc3c2n1C[C@@H](C)O[P@@](=O)(N[C@@H](C)C(=O)OC(C)C)Oc1ccc2ccccc2c1 (single isomer, unassigned) [Example 6A] | 8.25 | > 30 | 5.14 |  |  | 1301 |  | 
9 | CCOCc1nc2c(N)nc3ccccc3c2n1C[C@@H](C)O[P@@](=O)(N[C@@H](C)C(=O)OC(C)C)Oc1ccc(C)cc1 (single isomer, unassigned) [Example 9A] | 8.10 | > 30 | 5.02 |  |  | 1202 |  | 
10 | CCOCc1nc2c(N)nc3ccccc3c2n1C[C@@H](C)O[P@@](=O)(N[C@@H](C)C(=O)OC(C)C)Oc1cccc(Cl)c1 (single isomer, unassigned) [Example 11A] | 8.04 | > 30 | 5.23 |  |  | 640 |  | 
11 | CCOCc1nc2c(N)nc3ccccc3c2n1C[C@@H](C)O[P@@](=O)(N[C@@H](C)C(=O)OC(C)C)Oc1ccc(Cl)cc1 (single isomer, unassigned) [Example 12A] | 8.46 | > 30 | 5.22 |  |  | 1735 |  | 
12 | CCOCc1nc2c(N)nc3ccccc3c2n1C[C@@H](C)O[P@@](=O)(N[C@@H](C)C(=O)OC(C)(C)C)Oc1ccccc1 (single isomer, unassigned) [Example 14A] | 6.44 | > 30 | 4.80 |  |  | 43 |  | 
13 | CCOCc1nc2c(N)nc3ccccc3c2n1C[C@@H](C)O[P@@](=O)(N[C@@H](C)C(=O)OCc1ccccc1)Oc1ccccc1 (single isomer, unassigned) [Example 16A] | 7.45 | > 30 | 5.23 |  |  | 165 |  | 
14 | CCOCc1nc2c(N)nc3ccccc3c2n1C[C@@H](C)O[P@@](=O)(N[C@@H](C)C(=O)OC(C)(C)C)Oc1ccc(C)cc1 (single isomer, unassigned) [Example 17A] | 6.88 | > 30 | < 4.52 |  |  | >226 |  | 
15 | CCOCc1nc2c(N)nc3ccccc3c2n1C[C@@H](C)O[P@@](=O)(N[C@@H](C)C(=O)OC(C)(C)C)Oc1ccc(OC)cc1 (single isomer, unassigned) [Example 18A] | 6.69 | > 30 | < 4.52 |  |  | >148 |  | 
16 | CCOCc1nc2c(N)nc3ccccc3c2n1C[C@@H](C)O[P@@](=O)(N[C@@H](C)C(=O)OC(C)(C)C)Oc1ccc(Cl)cc1 (single isomer, unassigned) [Example 19A] | 7.23 | > 30 | < 4.52 |  |  | >513 |  | 
17 | CCOCc1nc2c(N)nc3ccccc3c2n1C[C@H](C)O [Example 1A] | 5.97 | > 30 | 6.36 | 2.5 |  |  |  | 
18 | CCOCc1nc2c(N)nc3ccccc3c2n1CC(C)O (stereo not shown) [Example 1] | 5.80 | > 30 | 6.18 | 2.4 |  |  |  | 
